Laboratory results from the supplement of paper PMC10307832.

How the values were obtained:
Test in all cases: relative viability (nuclei count vs DMSO), 5 days (fraction); higher = more cells survive
IMD-0354 + Trametinib = compound: O=C(Nc1cc(C(F)(F)F)cc(C(F)(F)F)c1)c1cc(Cl)ccc1O [IMD-0354] + CC(=O)Nc1cccc(-n2c(=O)n(C3CC3)c(=O)c3c(Nc4ccc(I)cc4F)n(C)c(=O)c(C)c32)c1 [Trametinib] (partner 0.02 µM)
How it was run: (§1)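 After 5 days of treatment, lung cancer cells in 1536-well plates were fixed and stained in a single step (final 0.05% Triton X-100, 1% formaldehyde, 1 ug/ml Hoechst) and their nuclei counted on 4× images. Treatment had been applied by pin tool the day after seeding as one drug alone or as a fixed anchor-drug dose with five library-drug doses (not always all listed) in √10 steps. Relative viability is the nuclei count of treated wells divided by that of vehicle wells, and values are medians of duplicate plates.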

IMD-0354 + Decitabine = compound: O=C(Nc1cc(C(F)(F)F)cc(C(F)(F)F)c1)c1cc(Cl)ccc1O [IMD-0354] + Nc1ncn([C@H]2C[C@H](O)[C@@H](CO)O2)c(=O)n1 [Decitabine] (partner 2 µM)
How it was run: as §1

CX-5461 + Luminespib = compound: Cc1cnc(CNC(=O)c2c(=O)c3ccc(N4CCCN(C)CC4)nc3n3c2sc2ccccc23)cn1 [CX-5461] + CCNC(=O)c1noc(-c2cc(C(C)C)c(O)cc2O)c1-c1ccc(CN2CCOCC2)cc1 [Luminespib] (partner 0.01 µM)
How it was run: as §1

IMD-0354 + Linsitinib = compound: O=C(Nc1cc(C(F)(F)F)cc(C(F)(F)F)c1)c1cc(Cl)ccc1O [IMD-0354] + C[C@]1(O)C[C@@H](c2nc(-c3ccc4ccc(-c5ccccc5)nc4c3)c3c(N)nccn32)C1 [Linsitinib] (partner 1 µM)
How it was run: as §1

Cell Line | relative viability (IMD-0354 + Trametinib; first compound 0.04 µM) | relative viability (IMD-0354 + Trametinib; first compound 0.1265 µM) | relative viability (IMD-0354 + Trametinib; first compound 0.4 µM) | relative viability (IMD-0354 + Trametinib; first compound 1.265 µM) | relative viability (IMD-0354 + Trametinib; first compound 4 µM) | relative viability (IMD-0354 + Decitabine; first compound 0.04 µM) | relative viability (IMD-0354 + Decitabine; first compound 0.1265 µM) | relative viability (IMD-0354 + Decitabine; first compound 0.4 µM) | relative viability (IMD-0354 + Decitabine; first compound 1.265 µM) | relative viability (IMD-0354 + Decitabine; first compound 4 µM) | relative viability (CX-5461 + Luminespib; first compound 0.01 µM) | relative viability (CX-5461 + Luminespib; first compound 0.03162 µM) | relative viability (CX-5461 + Luminespib; first compound 0.1 µM) | relative viability (CX-5461 + Luminespib; first compound 0.3162 µM) | relative viability (CX-5461 + Luminespib; first compound 1 µM) | relative viability (IMD-0354 + Linsitinib; first compound 0.04 µM) | relative viability (IMD-0354 + Linsitinib; first compound 0.1265 µM) | relative viability (IMD-0354 + Linsitinib; first compound 0.4 µM) | relative viability (IMD-0354 + Linsitinib; first compound 1.265 µM) | relative viability (IMD-0354 + Linsitinib; first compound 4 µM)
201T | 0.732 | 0.74 | 0.611 | 0.727 | 0.319 | 0.797 | 0.807 | 0.851 | 0.828 | 0.331 | 1.05 | 1.04 | 1.05 | 1.06 | 1.11 | 1.13 | 1.01 | 1.02 | 1.06 | 0.385
A549 | – | – | – | – | – | 0.269 | 0.229 | 0.249 | 0.296 | 0.1 | – | – | – | – | – | 0.782 | 0.581 | 0.264 | 0.439 | 0.0949
A-427 | 0.878 | 0.73 | 0.636 | 0.176 | 0.162 | 0.709 | 0.593 | 0.522 | 0.15 | 0.175 | 0.965 | 0.899 | 0.953 | – | 0.721 | 1.21 | 1.1 | 0.986 | 0.719 | 0.115
ABC-1 | – | – | – | – | – | 1.23 | 0.985 | 0.851 | – | 0.36 | 0.531 | 0.691 | 0.521 | 0.402 | 0.303 | 0.858 | 0.826 | 0.57 | 0.335 | 0.28
BEN | 1.07 | 0.853 | 0.814 | 0.472 | 0.401 | 0.739 | 0.741 | 0.567 | 0.391 | 0.347 | 0.326 | 0.391 | 0.289 | 0.337 | 0.181 | 0.929 | 0.771 | 0.537 | 0.435 | 0.256
CAL-12T | 0.333 | 0.308 | 0.403 | 0.191 | 0.211 | – | – | – | – | – | 0.302 | 0.534 | 0.31 | 1.51 | 0.24 | 0.771 | 0.754 | 0.895 | 0.152 | 0.164
COR-L23 | 0.64 | 0.576 | 0.458 | 0.118 | 0.163 | 0.402 | 0.443 | 0.339 | 0.141 | 0.146 | 0.641 | 0.597 | 0.512 | 0.547 | 0.333 | 0.764 | 0.73 | 0.388 | 0.116 | 0.158
COR-L 105 | 0.435 | 0.448 | 0.455 | 0.342 | 0.318 | 0.674 | 0.685 | 0.576 | 0.619 | 0.318 | 0.839 | 0.703 | 0.907 | 0.667 | 0.699 | 1.05 | 0.682 | 0.638 | 0.613 | 0.265
Calu-6 | – | – | – | – | – | – | – | – | – | – | – | – | – | – | – | 0.92 | 0.859 | 0.862 | 0.0995 | 0.0777
ChaGo-K-1 | 0.918 | 0.872 | 0.68 | 0.718 | 0.233 | 0.509 | 0.508 | 0.435 | 0.511 | 0.198 | 0.595 | 0.626 | 0.548 | 0.668 | 0.462 | – | – | – | – | –
EBC-1 | – | – | – | – | – | – | – | – | – | – | – | – | – | – | – | 0.845 | 0.703 | 0.741 | 0.113 | 0.164
EKVX | 0.399 | 0.3 | – | 0.339 | 0.175 | 0.294 | 0.316 | – | 0.36 | 0.155 | 0.868 | 0.91 | 0.728 | 0.843 | 0.689 | 1.1 | 0.961 | – | 0.743 | 0.232
EMC-BAC-2 | 0.918 | 0.933 | 0.584 | – | 0.3 | 0.955 | 0.994 | 0.696 | – | 0.282 | 1.14 | 1.27 | 1.15 | 1.11 | 0.756 | 0.909 | 0.825 | 0.549 | 0.801 | 0.207
EPLC-272H | 0.295 | 0.271 | 0.317 | 0.268 | 0.201 | 0.372 | 0.341 | 0.362 | 0.337 | 0.288 | 0.324 | 0.192 | 0.196 | – | 0.356 | 1.3 | 1.09 | 0.626 | 0.945 | 0.31
H3255 | 0.612 | 0.664 | 0.472 | 0.49 | 0.311 | 0.52 | 0.595 | 0.504 | 0.529 | 0.3 | 0.896 | 0.859 | 0.932 | 0.811 | 0.941 | 0.931 | 0.916 | 0.509 | 0.314 | 0.237
HARA | 0.772 | 0.517 | 0.632 | 0.225 | 0.262 | 0.5 | 0.665 | 0.399 | 0.189 | 0.251 | 0.711 | 1.15 | 1.09 | – | 0.392 | 1.08 | 0.867 | 0.577 | 0.119 | 0.136
HCC-15 | 0.387 | 0.35 | 0.335 | 0.269 | 0.146 | 0.68 | 0.614 | 0.292 | 0.108 | 0.161 | 0.236 | 0.331 | 0.305 | 0.359 | 0.216 | 0.801 | 0.812 | 0.489 | 0.376 | 0.141
HCC-44 | 1.09 | 1.14 | 0.973 | 1.04 | 0.319 | 0.971 | 0.939 | 0.813 | 0.625 | 0.449 | 1.11 | 1.26 | 0.714 | 0.834 | 0.208 | 0.68 | 0.573 | 0.394 | 0.297 | 0.128
HCC-78 | 0.765 | 0.687 | 0.766 | 0.782 | 0.334 | 0.714 | 0.619 | 0.583 | 0.6 | 0.426 | – | – | – | – | – | 0.471 | 0.495 | 0.421 | 0.486 | 0.276
